Publication PMC10771296, “Plectasin: from evolution to truncation, expression, and better druggability” (Frontiers in Microbiology, 2023)
In brackets after ≈: the same amount, converted by molar mass. Where a SMILES comes first, the peptide text is derived from it. Bridges are numbered along the chain shown (N, C = ends).

Legend:
[1] = test system: ICR mice; assay: In vivo safety: hematological indices; design: RDW-CV / MCHC: unit not given here; details: 10 mg/kg i.p. for six consecutive days, blood on 7th day
Procedure: Eight 6-week-old ICR mice were randomly divided into two groups and injected intraperitoneally with Ple-AB (10 mg/kg, body weight) and saline for six consecutive days. […] They were weighed daily, and blood was collected on the 7th day for hematological and biochemical analyses. Simultaneously, the heart, liver, spleen, lungs, and kidneys were collected for tissue fixation and hematoxylin–eosin (HE) staining to observe any pathological changes ([Shishkina et al., 2023]).

[2] = test system: mouse erythrocytes; assay: Hemolysis; type: cell-based; details: 8% mouse erythrocyte suspension, 37°C
Procedure: The hemolytic properties of the peptides were evaluated by measuring the amount of hemoglobin released from fresh mouse erythrocytes ([Yang et al., 2019]). Blood was collected from mice in sodium heparin anticoagulation tubes, and the erythrocytes were washed three or more times with 0.9% saline to obtain an 8% erythrocyte suspension. The erythrocyte suspension was mixed with an equal volume of Ple-AB at concentrations of 0.5–256 μg/mL, incubated at 37°C, and the absorbance values were measured at 540 nm. PBS and 0.1% Triton X-100 were used as the blank (A0) and positive controls (A100), respectively. Hemolysis (%) = [(A – A0)/(A100 – A0)] × 100, and three replicates were conducted for each case.

[3] = test system: S. aureus ATCC43300; assay: Post-antibiotic effect; type: cell-based, Staphylococcus aureus; details: 2 h exposure, 1 × 10^8 CFU/mL, then diluted 1,000 times
Procedure: They were incubated at 37°C and 250 rpm, sampled, and coated on MHA plates for colony counting every hour. Phosphate-buffered saline (PBS) was used as a negative control, and vancomycin was used as a positive control. The calculation formula for the Post-antibiotic effect (PAE) was based on previous study ([Wu et al., 2022]).

[4] = test system: S. dysgalactiae CVCC3938; assay: MIC/MBC, micro broth dilution; type: cell-based
Procedure: (§1) The minimum inhibitory concentration (MIC) of the peptides was assayed using the micro broth dilution method, which is an important indicator of the antibacterial activity of the AMPs ([Liu et al., 2021]). […] The MIC was defined as the lowest concentration of ones at which no visible bacterial growth was observed. All the assays were repeated thrice.

[5] = test system: S. epidermidis ATCC35984; assay: MIC/MBC, micro broth dilution; type: cell-based
Procedure: as §1

[6] = test system: S. agalactiae CAU-FRI-2022-01; assay: MIC/MBC, micro broth dilution; type: cell-based
Procedure: as §1

[7] = test system: S. agalactiae ATCC13813; assay: MIC/MBC, micro broth dilution; type: cell-based
Procedure: as §1

[8] = test system: S. epidermidis ATCC12228; assay: MIC/MBC, micro broth dilution; type: cell-based
Procedure: as §1

[9] = test system: S. agalactiae CAU-FRI-2022-02; assay: MIC/MBC, micro broth dilution; type: cell-based
Procedure: as §1

[10] = test system: Shigella CMCC3926; assay: MIC, micro broth dilution; type: cell-based; details: 1 × 10^5 CFU/mL, repeated thrice
Procedure: as §1

[11] = test system: P. aeruginsoa CICC21630; assay: MIC, micro broth dilution; type: cell-based; details: 1 × 10^5 CFU/mL, repeated thrice
Procedure: as §1

[12] = test system: E. coli ATCC25922; assay: MIC, micro broth dilution; type: cell-based; details: 1 × 10^5 CFU/mL, repeated thrice
Procedure: as §1

[13] = test system: E. coli O157; assay: MIC, micro broth dilution; type: cell-based; details: 1 × 10^5 CFU/mL, repeated thrice
Procedure: as §1

[14] = test system: S. enteriditis CVCC3377; assay: MIC, micro broth dilution; type: cell-based; details: 1 × 10^5 CFU/mL, repeated thrice
Procedure: as §1

[15] = test system: S. aureus ATCC43300; assay: Stability in simulated (artificial) gastric fluid read out as MIC; type: in vitro ADME, Staphylococcus aureus
Procedure: (§2) The stability of Ple-AB was assessed based on its antibacterial activity against S. aureus ATCC43300. Temperature stability was determined by incubation at 20, 40, 60, 80, and 100°C for 1 h ([Li et al., 2020]). The pH stability was determined by incubation in buffers with a pH of 2, 4, 6, 8, and 10 for 4 h ([Yang et al., 2017]). The peptides were incubated with different concentrations of metal ions, serum, artificial gastric fluid, and simulated intestinal fluid to assess their stability in the blood and intestines ([Lyu et al., 2019]). All the treatments were performed in triplicates.

[16] = test system: S. aureus ATCC43300; assay: pH stability read out as MIC; type: physicochemical, Staphylococcus aureus; details: for MIC after pH treatment: triplicates
Procedure: as §2

[17] = test system: S. aureus ATCC43300; assay: Thermal stability read out as MIC; type: physicochemical, Staphylococcus aureus; details: 1 h; for MIC after heat treatment: triplicates
Procedure: as §2

[18] = micro broth dilution, 1 × 10^5 CFU/mL, repeated thrice
[19] = bovine mastitis isolate, micro broth dilution, 1 × 10^5 CFU/mL, repeated thrice

For CC[C@H](C)[C@@H]1NC(=O)[C@H](CO)NC(=O)[C@H](CCCCN)NC(=O)[C@@H]2CSSC[C@@H](C(=O)N[C@@H](Cc3ccc(O)cc3)C(=O)O)NC(=O)[C@H](CCCCN)NC(=O)[C@@H]3CSSC[C@H](NC(=O)[C@H](CCC(N)=O)NC(=O)[C@H](CCSC)NC(=O)[C@H](CCC(=O)O)NC(=O)[C@H](CC(=O)O)NC(=O)[C@H](Cc4c[nH]c5ccccc45)NC(=O)[C@@H]4CCCN4C(=O)[C@@H](NC(=O)CNC(=O)[C@H](Cc4ccccc4)NC(=O)CN)CSSC[C@H](NC(=O)[C@H](Cc4ccc(O)cc4)NC(=O)CNC(=O)CNC(=O)[C@H](CCCCN)NC(=O)[C@H](Cc4ccc(O)cc4)NC(=O)CNC(=O)[C@H](CCCCN)NC1=O)C(=O)N[C@@H](C)C(=O)N[C@@H](CCCCN)C(=O)NCC(=O)NCC(=O)N[C@@H](Cc1ccccc1)C(=O)N[C@@H](C(C)C)C(=O)N3)C(=O)N[C@@H](Cc1c[nH]cn1)C(=O)N[C@@H](CC(N)=O)C(=O)N[C@@H](Cc1c[nH]cn1)C(=O)N2 [Ple-AB] (H-GFGCPWDEMQCHNHCKSIKGYKGGYCAKGGFVCKCY-OH; disulfide 4-26, 11-33, 15-35; N-terminus and C-terminus assumed), the BASO [1] was 0.09 ± 0.027 10^9/L, the BASO % [1] was 1.09 ± 0.34% and the EO [1] was 0.19 ± 0.106 10^9/L. The EO % [1] was 2.33 ± 1.24%, the HBG [1] was 128 ± 12 g/L and the HCT % [1] was 41.3 ± 2.4%. For the same compound, the LYM [1] was 5.89 ± 0.585 10^9/L, the LYM % [1] was 74.8 ± 3.02% and the MCH [1] was 13.48 ± 0.67 pg. For the same compound, the MCHC [1] was 32.86 ± 1.73, the MCV [1] was 41.73 ± 1.17 fL and the MONO [1] was 0.24 ± 0.066 10^9/L. For the same compound, the MONO % [1] was 3 ± 0.49%, the MPV [1] was 6.63 ± 0.57 fL and the NEUT [1] was 1.49 ± 0.354 10^9/L. For the same compound, the NEUT % [1] was 18.78 ± 1.66%, the PCT % [1] was 0.02 ± 0.01% and the PDW % [1] was 15.85 ± 0.75%. The PLCR % [1] was 15.35 ± 3.65%, the PLT [1] was 782.3 ± 48.25 10^9/L and the RBC [1] was 9.44 ± 0.82 10^12/L. For the same compound, the RDW-CV [1] was 18.58 ± 1.97, the RDW-SD % [1] was 44.55 ± 3.65% and the WBC [1] was 7.89 ± 0.94 10^9/L. The “Whole blood cell profiles versus control group” value [1] was “not significantly different”, the Hemolytic rate ([2]; all concentrations 0.5–256 μg/mL, A540, three replicates) was “less than 2%” and the Hemolytic rate ([2]; highest concentration, 256 μg/mL, A540) was 1.07%. For the same compound, the “PAE (post-antibiotic effect)” value ([3]; 1× MIC) was 1.15 h, the “PAE (post-antibiotic effect)” value ([3]; 2× MIC) was 1.18 h and the “PAE (post-antibiotic effect)” value ([3]; 4× MIC) was 2.25 h. For the same compound, the MBC ([4]; S. dysgalactiae CVCC3938) was 4 µg/mL (≈ 1 µM), the MIC [4, 18] was 4 µg/mL (≈ 1 µM) and the MBC ([5]; S. epidermidis ATCC35984) was 8 µg/mL (≈ 2 µM). For the same compound, the MIC [5, 18] was 4 µg/mL (≈ 1 µM), the MBC ([6]; S. agalactiae CAU-FRI-2022-01) was 32 µg/mL (≈ 8 µM) and the MIC [6, 19] was 4 µg/mL (≈ 1 µM). For the same compound, the MBC ([7]; S. agalactiae ATCC13813) was 4 µg/mL (≈ 1 µM), the MIC [7, 18] was 4 µg/mL (≈ 1 µM) and the MBC ([8]; S. epidermidis ATCC12228) was 8 µg/mL (≈ 2 µM). For the same compound, the MIC [8, 18] was 2 µg/mL (≈ 0.5 µM), the MBC ([9]; S. agalactiae CAU-FRI-2022-02) was 4 µg/mL (≈ 1 µM) and the MIC [9, 19] was 2 µg/mL (≈ 0.5 µM). The MIC [10] was over 128 µg/mL, the MIC [11] was over 128 µg/mL and the MIC [12] was over 128 µg/mL. For the same compound, the MIC [13] was over 128 µg/mL, the MIC [14] was over 128 µg/mL and the “MIC after Simulated Gastric Fluid” value ([15]; Simulated Gastric Fluid (pepsin), 1-2 h, triplicates) was 16 µg/mL (≈ 4 µM). The “MIC after artificial gastric juice” value ([15]; artificial gastric juice (pepsin), 2 h) was 16 µg/mL (≈ 4 µM), the “MIC after pH treatment” value ([16]; buffer pH 2, 4 h) was 16 μg/mL and the “MIC after pH treatment” value ([16]; buffer pH 4, 4 h) was 16 μg/mL. For the same compound, the “MIC after pH treatment” value ([16]; buffer pH 6, 4 h) was 16 μg/mL, the “MIC after pH treatment” value ([16]; buffer pH 8, 4 h) was 16 μg/mL and the “MIC after pH treatment” value ([16]; buffer pH 10, 4 h) was 32 μg/mL. For the same compound, the “Increase of MIC after pH treatment” value ([16]; pH 10, 4 h, versus control) was “twofold”, the “MIC after heat treatment” value ([17]; 20°C) was 16 µg/mL (≈ 4 µM) and the “MIC after heat treatment” value ([17]; 40°C) was 16 µg/mL (≈ 4 µM). The “MIC after heat treatment” value ([17]; 60°C) was 16 µg/mL (≈ 4 µM), the “MIC after heat treatment” value ([17]; 80°C) was 16 µg/mL (≈ 4 µM) and the “MIC after heat treatment” value ([17]; 100°C) was 32 µg/mL (≈ 8 µM). For the same compound, the “Increase of MIC after heat treatment” value ([17]; 100°C, versus control) was “twofold”.
